Read-outs that look alike come from different tables or passages of the source.
Tests used:
C. lagenarium = assay: Spore germination assay, fungicidal activity against C. lagenarium; format: cell-based, Colletotrichum lagenarium; conditions: Colletotrichum orbiculare
Method: (§1) The fungal pathogens C. lagenarium and B. cinerea was provided by the Agricultural Culture Collection of China (Yangling, Shaanxi, China). C. lagenarium was cultured for 2 weeks at 25 ± 1 °C on potato dextrose agar (PDA) while B. cinerea was cultured at 20 °C on the same medium after being retrieved from the storage tube. Plates were flooded with sterile distilled water, and then conidia were scraped with a glass rod. Mycelial debris was removed by filtration. The spores were harvested and suspended in sterile distilled water containing 0.1% (v/v) Tween 20. The concentration of the spore suspension was adjusted to 1.0 × 10^6 spores/mL with sterilized distilled water following.
(§2) The tested samples (10.0 mg) dissolved in acetone (0.1 mL) were diluted with sterile distilled water to prepare 10.0 mL stock solution, which was further diluted to prepare test solutions in which the final concentration of acetone was <1% (v/v). A series of concentrations of tested samples and one control (1% acetone with sterile distilled water) were separately tested for spore germination of C. lagenarium or B. cinerea. The samples were inoculated with spore suspension of C. lagenarium or B. cinerea containing 1.0 × 10^6 spores/mL. Aliquots of 10 μL of prepared spore suspension were placed on separate glass slides in triplicate. Slides containing the spores were incubated in a moisture chamber at 25 °C for 6~8 h. Each slide was then observed under the microscope for spore germination. Spores were considered to have germinated if the length of the germ tube was at least half the length of the spore. Afterward, spore germination was stopped by applying a drop of lactophenol-cotton blue to the inoculation sites on plates. The numbers of generated spores were counted under a microscope (Olympus BX61, Tokyo, Japan), and the percentage of germinated spores was calculated. Chlorothalonil was used as the positive control.

B. cinerea = assay: Spore germination assay, fungicidal activity against B. cinerea; format: cell-based, Botrytis cinerea; conditions: Botrytis cinerea, in vitro, n = 3
Method: as §1, §2

HepG2 cell line = assay: Cytotoxic activity against human tumor cells line (HepG2); format: cell-based
[1] = Table 1, from IC50 in μM, read-out: pIC50, C. lagenarium (converted)
[2] = Table 2, fungicidal activity against C. lagenarium used for QSAR, read-out: pIC50 (converted)
[3] = Table 4, experimental, C. lagenarium, read-out: Exp. pIC50 (converted)
[4] = Table 6, read-out: IC50 (μM) (against C. lagenarium)
[5] = in vitro, spore germination, n = 3, read-out: IC50, C. lagenarium

Row | Compound | IC50 (C. lagenarium; [1]) [µM] | IC50 (C. lagenarium; [2]) [µM] | IC50 (C. lagenarium; [3]) [µM] | IC50 (C. lagenarium; [4]) [µM] | IC50 (C. lagenarium; [5]) [µM] | IC50 (B. cinerea) [µM] | IC50 (HepG2 cell line) [µM] | melting point [°C]
1 | C=C1CC(c2ccccc2OC(=O)c2cccc(OC)c2)OC1=O (stereo not shown) [Compound 5l, 4-[2-(3-Methoxylbenzoyloxy)phenyl]-2-methylenebutyrolactone] | 284 | 284 | 284 | 284 | 284 | 303 | 29 | 180.3 to 180.8
2 | C=C1CC(c2ccc(OC(=O)c3cccc(Cl)c3)cc2)OC1=O (stereo not shown) [Compound 4b, 4-[4-(3-Chlorobenzoyloxy)phenyl]-2-methylenebutyrolactone] | 8.99 | 8.99 | 8.99 | 8.99 | 8.99 | 22.1 | 22.4 | 168.8 to 169.2
3 | C=C1CC(c2ccc(O)cc2)OC1=O (stereo not shown) [Compound 4, 4-(4-Hydroxyphenyl)-2-methylenebutyrolactone] | 161 |  |  | 161 | 161 | 208 | 23.3 | 79 to 81

From PMC6273913, “New α-Methylene-γ-Butyrolactone Derivatives as Potential Fungicidal Agents: Design, Synthesis and Antifungal Activities” (Molecules, 2016)
